± gives the expanded uncertainty stated by the source.
Assay: xn = mol fraction of the nth substance listed
Details: 298.15 K, 101.1 kPa, Liquid; for viscosity: Falling or rolling sphere viscometry; for mass density: Vibrating tube method

Question: For `C[N+](C)(C)CCO.[Cl-]` [choline chloride] + OCC(O)CO, which viscosity (x1 = 0.333) is on record?
Answer: 317.14 ± 69 mPa·s

Question: What about the mass density (x1 = 0.333) of the same compound?
Answer: 1191.3 ± 16 kg/m3

Question: With `C[N+](C)(C)CCO.[Cl-]` [choline chloride] + OCCO as the compound, how does the viscosity (x1 = 0.333) read?
Answer: 39.45 ± 8.3 mPa·s

Question: And the mass density (x1 = 0.333)?
Answer: 1120.4 ± 15 kg/m3

Question: For `NC(N)=O` [urea] + C[N+](C)(C)CCO.[Cl-], which viscosity (x2 = 0.333) is on record?
Answer: 1348.3 ± 320 mPa·s

Question: And the mass density (x2 = 0.333)?
Answer: 1210.4 ± 16 kg/m3

Reference: the NIST ThermoML archive (doi:10.1016/j.jct.2019.01.018)
